How the values were obtained:
MDA-MB-453 [1] = assay: drug sensitivity score (DSS), in combination with BLU9931 (DSS (weighted AUC score)); higher = more sensitive (stronger viability decrease); extreme values may be limits of the assay; settings: BLU9931 100 nM; 72 h
Summary of the method: (§1)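 Each 384-well plate held compounds from the FIMM Oncology set, predispensed in singlicate at five 10-fold dilutions spanning a 10,000-fold range, and each well then received 2000 MDA-MB-453 cells in medium with or without an FGFR4 inhibitor at 100 nM final. Plates stayed at 37 °C, 5% CO2 for 72 h, after which cellular ATP was measured with CellTiterGlo 2.0. Readings were converted per plate into percent viability against control wells, and the drug sensitivity score was taken as a weighted area under a four-parameter logistic fit.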

MDA-MB-453 [2] = assay: drug sensitivity score (DSS), single agent (DSS (weighted AUC score)); higher = more sensitive (stronger viability decrease); extreme values may be limits of the assay; settings: BLU9931 0 nM; 72 h
Summary of the method: as §1

SMILES	drug sensitivity score (MDA-MB-453 [1])	drug sensitivity score (MDA-MB-453 [2])
CC(C)(C)c1cnc(CSc2cnc(NC(=O)C3CCNCC3)s2)o1 [SNS-032]	19.1	18.1
CCC1=C[C@@H]2CN(C1)Cc1c([nH]c3ccccc13)[C@@](C(=O)OC)(c1cc3c(cc1OC)N(C)[C@H]1[C@@](O)(C(=O)OC)[C@H](OC(C)=O)[C@]4(CC)C=CCN5CC[C@]31[C@@H]54)C2 [Vinorelbine]	19	23.2
CN1CCN(C2CCN(C(=O)Nc3cc(Oc4ccc(NC(=O)C5(C(=O)Nc6ccc(F)cc6)CC5)c(F)c4)ccn3)CC2)CC1 [Golvatinib]	0	0.3
COc1cccc(-c2ccc(NC(=O)C3=C(C(=O)O)CCC3)c(F)c2)c1 [Vidofludimus]	0	0.4
CN[C@@H](C)C(=O)N[C@H]1CN(C(=O)CC(C)C)CC[C@H]2CC[C@@H](C(=O)NC(c3ccccc3)c3ccccc3)N2C1=O [AT-406]	5.1	5.1
C[C@H](Nc1ncnc2nc[nH]c12)c1cc2cccc(Cl)c2c(=O)n1-c1ccccc1 [Duvelisib]	0	0
CC(C)[C@H](C(=O)Nc1ccc(C(=O)NO)cc1)c1ccccc1 [AR-42]	17.8	18.1
CNc1nc(Nc2cn(C(C)(C)C#N)nc2C)ncc1C(F)(F)F [GNE-0877]	0	0
Cc1ccc(=O)n(-c2ccccc2)c1 [Pirfenidone]	0	0
Cc1sc2c(c1C)C(c1ccc(Cl)cc1)=N[C@@H](CC(=O)NCCCCNC(=O)COc1cccc3c1C(=O)N(C1CCC(=O)NC1=O)C3=O)c1nnc(C)n1-2 (stereo not given in full) [dBET1]	13.2	12.2
CCOCc1nc2c(N)nc3ccccc3c2n1CC(C)(C)O [Resiquimod]	0	0.9
CN(CC(=O)N(Cc1ccc(C2CCCCC2)cc1)c1ccc(C(=O)O)cc1)S(=O)(=O)c1c(F)c(F)c(F)c(F)c1F [SH-4-54]	7.4	5.4
CC(=O)c1cc2c(o1)C(=O)c1ccccc1C2=O [Napabucasin]	0	0
COc1cccc2c1C(=O)c1c(O)c3c(c(O)c1C2=O)C[C@@](O)(C(=O)CO)C[C@@H]3O[C@H]1C[C@H](N)[C@H](O)[C@H](C)O1 [Doxorubicin]	5.1	6.8
Nc1cc(C(F)(F)F)c(-c2cc(N3CCOCC3)nc(N3CCOCC3)n2)cn1 [Buparlisib]	11.9	11.3
C[C@]12CC[C@H](O)CC1=CC[C@@H]1[C@@H]2CC[C@]2(C)C(c3cccnc3)=CC[C@@H]12 [Abiraterone]	0	0
Nc1nc2[nH]cc(CCc3ccc(C(=O)N[C@@H](CCC(=O)O)C(=O)O)cc3)c2c(=O)[nH]1 [Pemetrexed]	1.8	5.4
Cc1nn(C)c(COc2ccc(N3CCN(S(=O)(=O)N(C)C)CC3)cc2)c1-c1cccc2c(CCCOc3cccc4ccccc34)c(C(=O)O)n(CCN3CCOCC3)c12	5.8	5.8
Cc1c(N)nc([C@H](CC(N)=O)NC[C@H](N)C(N)=O)nc1C(=O)N[C@H](C(=O)N[C@H](C)[C@@H](O)[C@H](C)C(=O)N[C@H](C(=O)NCCc1nc(-c2nc(C(=O)NCCC[S+](C)C)cs2)cs1)[C@@H](C)O)[C@@H](OC1OC(CO)C(O)C(O)C1OC1OC(CO)C(O)C(OC(N)=O)C1O)c1cnc[nH]1 (stereo not given in full) [Bleomycin]	0	0
C[C@@H]1CN(C(=O)c2ccc(NC(=O)c3cc(O[C@H](C)c4c(Cl)ccc(F)c4Cl)c(N)nn3)cc2)C[C@H](C)N1 [Ensartinib]	0	0
Cc1c(-c2ccc(N3CCc4cccc(C(=O)Nc5nc6ccccc6s5)c4C3)nc2C(=O)O)cnn1CC12CC3CC(CC(C3)C1)C2	5.4	1.4
CC[C@@H]1C(=O)OC[C@@H]1Cc1cncn1C [Pilocarpine]	0.2	1.2
CCC1(c2ccc(N)cc2)CCC(=O)NC1=O (stereo not given) [Aminoglutethimide]	1.3	0
COc1cc(C)c(/C=C/C(C)=C/C=C/C(C)=C/C(=O)O)c(C)c1C [Acitretin]	0	0.2
CC(C)[C@H]1C(=O)N[C@@H](CCCNC(=N)N)C(=O)NCC(=O)N[C@@H](CC(=O)O)C(=O)N[C@H](Cc2ccccc2)C(=O)N1C [Cilengitide]	0	0
Nc1cccc2c1C(=O)N(C1CCC(=O)NC1=O)C2=O (stereo not given) [Pomalidomide]	0	0
COC[C@H](NC(=O)c1cnc(C)s1)C(=O)N[C@@H](COC)C(=O)N[C@@H](Cc1ccccc1)C(=O)[C@@]1(C)CO1 [Oprozomib]	12.3	14.8
CN(C)Cc1c(C(=O)NCCOc2ccc(C(=O)NO)cc2)oc2ccccc12 [Abexinostat]	22.3	22.6

SMILES	drug sensitivity score (MDA-MB-453 [1])	drug sensitivity score (MDA-MB-453 [2])
CN1CCc2c(c3ccccc3n2Cc2ccc(C(=O)NO)cc2)C1 [Tubastatin A]	2.1	4.1
COc1cc(C)[nH]c(=O)c1CNC(=O)c1c(C)n([C@H](C)C2CCOCC2)c2ccccc12 [CPI-360]	0	0
C[C@@H](Oc1cc(-c2cnn(C3CCNCC3)c2)cnc1N)c1c(Cl)ccc(F)c1Cl [Crizotinib]	0	0
CNCc1ccc(-c2[nH]c3cc(F)cc4c3c2CCNC4=O)cc1 [Rucaparib]	0	0.6
CS(=O)(=O)c1ccc(C(=O)Nc2ccc(Cl)c(-c3ccccn3)c2)c(Cl)c1 [Vismodegib]	0	0
CN1CCN(C(=O)c2ccc3cc(CCNc4ncnc5ccc(C#N)cc45)ccc3c2)CC1 [Senexin B]	1.3	2.4
CCCCCCCCCCCCCCCCOP(=O)([O-])OCC[N+](C)(C)C [Miltefosine]	3.9	2.7
COc1cc(OC)cc(N(CCNC(C)C)c2ccc3ncc(-c4cnn(C)c4)nc3c2)c1 [Erdafitinib]	0.2	4.3
O=C(c1cc(Cc2n[nH]c(=O)c3ccccc23)ccc1F)N1CCN(C(=O)C2CC2)CC1 [Olaparib]	0.5	1.7
CNC(=O)[C@@H](NC(=O)[C@H](CC(C)C)[C@H](O)C(=O)NO)C(C)(C)C [Marimastat]	0.8	1.1
Cc1[nH]c2ccccc2c1CCNCc1ccc(/C=C/C(=O)NO)cc1 [Panobinostat]	22.4	22.2
O=C(Nc1cccc(Nc2ncc(Br)c(NCCc3cnc[nH]3)n2)c1)N1CCCC1 [BX-912]	3.8	4.5
O=C(CCCCCCNC(=O)c1cnc(N(c2ccccc2)c2ccccc2)nc1)NO [Rocilinostat]	9.8	9.2
Cn1cc(C[C@@H](N)C(=O)O)c2ccccc21 [1-methyl-D-tryptophan]	0	0.2
CN1CCN(C2CCC(n3cc(-c4ccc(Oc5ccccc5)cc4)c4c(N)ncnc43)CC2)CC1 (stereo not given)	9.3	8.4
O=C(O)C(=O)O.[NH-][C@@H]1CCCC[C@H]1[NH-].[Pt+2] [Oxaliplatin]	7	8.2
CC(C)Nc1cc(-c2c[nH]c(C(=O)N[C@H](CO)c3cccc(Cl)c3)c2)c(Cl)cn1 [Ulixertinib]	0.5	3.5
COc1cccc(OCCCN)c1-c1cc(Nc2cnc(C#N)cn2)n[nH]1 [Prexasertib]	23.6	28
COc1cc(C(=O)O)ccc1NC(=O)[C@@H]1N[C@@H](CC(C)(C)C)[C@](C#N)(c2ccc(Cl)cc2F)[C@H]1c1cccc(Cl)c1F [Idasanutlin]	0	1.1
CCN1C(=O)CNc2ncc(-c3ccc(-c4nc[nH]n4)nc3C)nc21 [CC-115]	12.5	12.2
COC(=O)N[C@@H](C)CNc1nccc(-c2cn(C(C)C)nc2-c2cc(Cl)cc(NS(C)(=O)=O)c2F)n1 [Encorafenib]	0	0.2
CCc1cc2c(cc1N1CCC(N3CCOCC3)CC1)C(C)(C)c1[nH]c3cc(C#N)ccc3c1C2=O [Alectinib]	0	0.9
CO[C@@H]1[C@H](N(C)C(=O)c2ccccc2)C[C@H]2O[C@]1(C)n1c3ccccc3c3c4c(c5c6ccccc6n2c5c31)C(=O)NC4 [Midostaurin]	4.8	7.3
C=CC(=O)N1CCC[C@@H](n2nc(-c3ccc(Oc4ccccc4)cc3)c3c(N)ncnc32)C1 [Ibrutinib]	15.8	14.5
CC1(C)C(C(=O)Nc2ccc(S(=O)(=O)c3ccc(NC(=O)C4C(C)(C)C4(C)C)cc3)cc2)C1(C)C [BRD7116]	3.9	4.5
C[C@@H](Oc1ccc2[nH]nc(/C=C/c3cnn(CCO)c3)c2c1)c1c(Cl)cncc1Cl	1.8	9
CN1CCN(c2nc(C3=C(c4c[nH]c5ccccc45)C(=O)NC3=O)c3ccccc3n2)CC1 [Sotrastaurin]	1	2.5
